Assay results reported in patent publication US6645991B1, “αvβ3 integrin inhibitors” (Merck Patent GmbH, priority 1999, dated 2003).
pIC50: −log10 of the molar value.

Biological target: receptor αvβ3 (Homo sapiens, UniProt P05106+P06756)
Test: vitronectin binding test (method of Smith et al.)
Description: For the vitronectin binding test, the IC50 value is given, i.e. the concentration in nmol/litre which inhibits 50% of the vitronectin binding to the corresponding isolated receptor (method of Smith et al., J. Biol. Chem. 265, 12267-71, 1990).

Chain of receptor αvβ3 (P06756 31-889 limits assumed): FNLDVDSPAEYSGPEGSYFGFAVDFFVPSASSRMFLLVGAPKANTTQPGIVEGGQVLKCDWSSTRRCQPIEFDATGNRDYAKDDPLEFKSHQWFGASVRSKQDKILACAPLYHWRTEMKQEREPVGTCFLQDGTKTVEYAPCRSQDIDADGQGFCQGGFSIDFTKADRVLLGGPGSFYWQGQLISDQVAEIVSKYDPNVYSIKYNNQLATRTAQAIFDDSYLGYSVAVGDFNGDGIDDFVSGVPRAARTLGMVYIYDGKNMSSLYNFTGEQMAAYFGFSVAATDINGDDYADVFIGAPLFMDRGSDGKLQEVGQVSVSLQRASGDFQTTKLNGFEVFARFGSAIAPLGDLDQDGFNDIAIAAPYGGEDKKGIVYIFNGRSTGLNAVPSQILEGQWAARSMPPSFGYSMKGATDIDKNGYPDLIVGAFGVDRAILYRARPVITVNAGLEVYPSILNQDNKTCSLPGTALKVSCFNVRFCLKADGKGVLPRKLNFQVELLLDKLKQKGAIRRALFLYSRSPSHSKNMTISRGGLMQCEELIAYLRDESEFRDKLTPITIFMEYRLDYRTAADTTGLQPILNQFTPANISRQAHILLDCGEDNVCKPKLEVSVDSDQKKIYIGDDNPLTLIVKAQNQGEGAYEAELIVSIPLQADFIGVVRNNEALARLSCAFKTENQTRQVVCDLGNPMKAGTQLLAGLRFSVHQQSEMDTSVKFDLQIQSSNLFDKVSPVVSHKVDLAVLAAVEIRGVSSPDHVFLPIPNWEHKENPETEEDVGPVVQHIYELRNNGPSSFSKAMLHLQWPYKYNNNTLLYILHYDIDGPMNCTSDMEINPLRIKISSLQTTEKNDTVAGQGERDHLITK
Chain of receptor αvβ3 (P06756 891-1048 limits assumed): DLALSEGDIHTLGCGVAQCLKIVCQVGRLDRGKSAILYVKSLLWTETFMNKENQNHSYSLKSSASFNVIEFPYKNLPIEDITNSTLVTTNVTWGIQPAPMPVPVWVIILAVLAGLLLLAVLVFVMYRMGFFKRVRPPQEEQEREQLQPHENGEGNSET
Chain of receptor αvβ3 (P05106 27-788): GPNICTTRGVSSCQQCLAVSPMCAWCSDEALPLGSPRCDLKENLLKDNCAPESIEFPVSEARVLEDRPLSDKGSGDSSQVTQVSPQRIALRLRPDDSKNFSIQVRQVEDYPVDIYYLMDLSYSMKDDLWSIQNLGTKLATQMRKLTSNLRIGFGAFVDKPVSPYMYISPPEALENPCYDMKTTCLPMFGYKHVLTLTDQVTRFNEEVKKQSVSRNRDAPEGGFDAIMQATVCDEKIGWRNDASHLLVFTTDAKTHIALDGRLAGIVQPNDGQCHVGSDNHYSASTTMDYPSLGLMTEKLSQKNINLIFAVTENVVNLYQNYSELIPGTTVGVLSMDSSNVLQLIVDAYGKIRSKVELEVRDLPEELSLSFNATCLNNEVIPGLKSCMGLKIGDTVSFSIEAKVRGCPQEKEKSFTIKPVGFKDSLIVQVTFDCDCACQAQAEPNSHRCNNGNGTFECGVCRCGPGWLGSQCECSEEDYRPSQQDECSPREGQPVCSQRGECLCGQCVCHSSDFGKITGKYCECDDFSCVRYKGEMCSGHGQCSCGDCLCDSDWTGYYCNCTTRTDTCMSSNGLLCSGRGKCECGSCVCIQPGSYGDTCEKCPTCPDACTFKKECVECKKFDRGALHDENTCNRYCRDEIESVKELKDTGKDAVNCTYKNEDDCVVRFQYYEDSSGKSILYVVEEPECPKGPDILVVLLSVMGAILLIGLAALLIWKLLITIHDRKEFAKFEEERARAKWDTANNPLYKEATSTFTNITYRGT

O=C(O)CC(Cc1ccc(OCCCNc2ccccn2)cc1)c1ccccc1 (centres unmarked) [3-phenyl-4-{4-[3-(pyridin-2-ylamino)propoxy]phenyl}butyric acid]
pIC50 (concentration which inhibits 50% of the vitronectin binding to the isolated receptor): 8.28
Inhibition of vitronectin binding to the receptor αvβ3 (qualitative statement): demonstrated experimentally
